Measurements published in patent publication US20140018384A1, “QUINOLINONE DERIVATIVES FOR USE IN THE TREATMENT OF AN AUTOIMMUNE DISEASE AND/OR AN INFLAMMATORY DISEASE” (PRONOXIS AB, priority 2011, published 2014).
Read-outs that look alike come from different tables or passages of the source.

Test system: PLB-985 cells
Test: ROS production (isoluminol/HRP luminescence) in PLB-985 cells, Biological Example 1
Assay type: cell-based
Method: To cells (HL-60 or PLB-985) in HBSS medium was added compound (25 or 50 μM), isoluminol and Horse Radish Peroxidase, fraction II. Luminescence was measured for 10-30 minutes and the area under the […] curve was divided by that from a control experiment to give the activity expressed as fold change.
Each assay indicated below was performed at a different site, at a different time, by different personnel and/or using different cell lines, concentrations and controls. The cell line, concentration of example compound and control used in respect of each assay were as indicated below. The values obtained from these different setups (each using an otherwise identical assay) are given as Activity A, B, C, D or E in Table 5 below. The values are expressed as fold increase of NADPH activity in the presence of the relevant of compound (as indicated below) compared to the relevant control (as indicated below).
Activity A: HL-60 cells; 50 μM compound vs. blank Activity B: PLB-985 cells; 25 μM compound vs. blank Activity C, D and E: PLB-985 cells; 25 μM compound vs. DMSO

[1] = 25 μM compound vs. DMSO, setup C, read-out: Activity C (fold increase of NADPH activity compared to control)
[2] = 25 μM compound vs. blank, read-out: Activity B (fold increase of NADPH activity compared to control)
[3] = 25 μM compound vs. DMSO, setup E, read-out: Activity E (fold increase of NADPH activity compared to control)
[4] = 25 μM compound vs. DMSO, setup D, read-out: Activity D (fold increase of NADPH activity compared to control)

SMILES | fold induction at 25 µM [1] | fold induction at 25 µM [2] | fold induction at 25 µM [3] | fold induction at 25 µM [4]
O=C(Cn1cc(C(=O)c2ccc(Cl)cc2)c(=O)c2cc3c(cc21)OCO3)Nc1ccc2c(c1)OCCO2 [Example 60, 2-[3-(4-Chlorobenzoyl)-6,7-methylenedioxy-4-oxo-1-quinolinyl]-N-(3,4-ethylenedioxyphenyl)acetamide] | 33.3 | 51.8 |  | 
COc1ccc(C(=O)c2cn(CC(=O)Nc3ccc4c(c3)OCCO4)c3cc4c(cc3c2=O)OCO4)cc1 [Example 58, 2-(3-p-Anisoyl-67-methylenedioxy-4-oxo-1-quinolinyl)-N-(3,4-ethylenedioxyphenyl)acetamide] | 3.6 | 2.5 |  | 
CCOc1ccc(C(=O)c2cn(CC(=O)Nc3ccc(OC)cc3OC)c3cc4c(cc3c2=O)OCO4)cc1 [Example 65, N-(2,4-Dimethoxyphenyl)-2-[3-(4-ethoxybenzoyl)-6,7-methylenedioxy-4-oxo-1-quinolinyl]acetamide] | 2.8 | 4.1 |  | 
O=C(Cn1cc(C(=O)c2ccccc2)c(=O)c2cc3c(cc21)OCO3)Nc1ccc(Cl)cc1 [Example 48, 2-(3-Benzoyl-6,7-methylenedioxy-4-oxo-1-quinolinyl)-N-(4-chlorophenyl)acetamide] | 42.5 | 81.4 |  | 
COc1cc(OC)c2c(c1)c(=O)c(C(=O)c1ccc(F)cc1)cn2CC(=O)Nc1ccc(Cl)cc1 [Example 42, N-(4-Chlorophenyl)-2-[6,8-dimethoxy-3-(4-fluorobenzoyl)-4-oxo-1-quinolinyl]acetamide] |  |  | 2.5 | 
O=C(Cn1cc(S(=O)(=O)c2ccccc2)c(=O)c2cc3c(cc21)OCO3)Nc1ccccc1 [Example 79, 2-(3-Benzenesulfonyl-6,7-methylenedioxy-4-oxo-1-quinolinyl)-N-phenylacetamide] | 3.2 |  |  | 
CCOc1ccc2c(c1)c(=O)c(C(=O)c1ccc(F)cc1)cn2CC(=O)Nc1ccc(OC)cc1 [Example 102, N-p-Anisyl-2-[6-ethoxy-3-(4-fluorobenzoyl)-4-oxo-1-quinolinyl]acetamide] |  |  |  | 2.1
CCOc1ccc(C(=O)c2cn(CC(=O)Nc3ccc(F)c(F)c3)c3cc4c(cc3c2=O)OCO4)cc1 [Example 67, N-(3,4-Difluorophenyl)-2-[3-(4-ethoxybenzoyl)-6,7-methylenedioxy-4-oxo-1-quinolinyl]acetamide] | 1.8 | 2.3 |  | 
COc1ccc(NC(=O)Cn2cc(C(=O)c3ccco3)c(=O)c3cc4c(cc32)OCO4)cc1 [Example 26, N-p-Anisyl-2-[3-(2-furoyl)-6,7-methylenedioxy-4-oxo-1-quinolinyl]acetamide] | 14.9 |  |  | 
COc1ccc2c(n1)c(=O)c(C(=O)c1ccc(F)cc1)cn2CC(=O)Nc1ccc(C(F)(F)F)cc1 [Example 40, 2-[3-(4-Fluorobenzoyl)-6-methoxy-4-oxo-1,5-naphthyridin-1-yl]-N-(4-trifluoromethylphenyl)acetamide] |  |  | 73 | 
CCc1ccc(C(=O)c2cn(CC(=O)Nc3ccc(OC)c(OC)c3)c3cc4c(cc3c2=O)OCO4)cc1 [Example 52, N-(3,4-Dimethoxyphenyl)-2-[3-(4-ethylbenzoyl)-6,7-methylenedioxy-4-oxo-1-quinolinyl]acetamide] | 55.6 | 154 |  | 
CCOc1ccc(C(=O)c2cn(CC(=O)Nc3ccc4c(c3)OCCO4)c3cc4c(cc3c2=O)OCO4)cc1 [Example 66, 2-[3-(4-Ethoxybenzoyl)-6,7-methylenedioxy-4-oxo-1-quinolinyl]-N-(3,4-ethylenedioxyphenyl)acetamide] | 2.5 | 2.7 |  | 
COc1ccc(NC(=O)Cn2cc(C(=O)c3ccc(F)cc3)c(=O)c3cc(F)ccc32)cc1 [Example 106, N-p-Anisyl-2-[6-fluoro-3-(4-fluorobenzoyl)-4-oxo-1-quinolinyl]acetamide] |  |  |  | 5.6
COc1ccc2c(c1)c(=O)c(C(=O)c1ccc(F)cc1)cn2CC(=O)Nc1ccc(C(F)(F)F)cc1 [Example 38, 2-[3-(4-Fluorobenzoyl)-6-methoxy-4-oxo-1-quinolinyl]-N-(4-trifluoromethylphenyl)acetamide] |  |  | 7 | 
O=C(Cn1cc(C(=O)c2ccc(F)cc2)c(=O)c2cc3c(cc21)OCO3)Nc1ccc(F)cc1 [Example 55, 2-[3-(4-Fluorobenzoyl)-6,7-methylenedioxy-4-oxo-1-quinolinyl]-N-(4-fluorophenyl)acetamide] | 19.6 | 6.3 |  | 
COc1ccc2c(c1)c(=O)c(C(=O)c1ccc(F)cc1)cn2CC(=O)Nc1ccc(C)cc1 [Example 37, 2-[3-(4-fluorobenzoyl)-6-methoxy-4-oxo-1-quinolinyl]-N-p-tolylacetamide] |  |  | 8.4 | 

SMILES | fold induction at 25 µM [1] | fold induction at 25 µM [2] | fold induction at 25 µM [3] | fold induction at 25 µM [4]
O=C(Cn1cc(C(=O)c2ccc3ccccc3c2)c(=O)c2cc3c(cc21)OCO3)Nc1ccc(Cl)c(Cl)c1 [Example 7, N-(3,4-Dichlorophenyl)-2-[6,7-methylenedioxy-3-(2-naphthoyl)-4-oxo-1-quinolinyl]acetamide] |  |  | 2.2 | 
Cc1ccc(C(=O)c2cn(CC(=O)Nc3ccc(Cl)cc3)c3cc4c(cc3c2=O)OCO4)cc1 [Example 49, N-(4-Chlorophenyl)-2-(3-p-toluoyl-6,7-methylenedioxy-4-oxo-1-quinolinyl)acetamide] | 56.4 | 152 |  | 
CN(C(=O)Cn1cc(C(=O)c2ccc3ccccc3c2)c(=O)c2cc3c(cc21)OCO3)c1ccc(Cl)cc1 [Example 15, N-(4-Chlorophenyl)-N-methyl-2-[6,7-methylenedioxy-3-(2-naphthoyl)-4-oxo-1-quinolinyl]acetamide] |  |  | 4.3 | 
COc1ccc(NC(=O)Cn2cc(C(=O)c3ccc(F)cc3)c(=O)c3cc(OC)c(OC)cc32)cc1 [Example 105, N-p-Anisyl-2-[6,7-dimethoxy-3-(4-fluorobenzoyl)-4-oxo-1-quinolinyl]acetamide] |  |  |  | 2
O=C(Cn1cc(C(=O)c2ccc(Cl)cc2)c(=O)c2cc3c(cc21)OCO3)Nc1ccc(Cl)cc1 [Example 51, 2-[3-(4-Chlorobenzoyl)-6,7-methylenedioxy-4-oxo-1-quinolinyl]-N-(4-chlorophenyl)acetamide] | 66.7 | 174 |  | 
COc1ccc(C(=O)c2cn(CC(=O)Nc3ccc4c(c3)OCO4)c3cc4c(cc3c2=O)OCO4)cc1 [Example 59, 2-(3-p-Anisoyl-6,7-methylenedioxy-4-oxo-1-quinolinyl)-N-(3,4-methylenedioxyphenyl)acetamide] | 13.4 | 7.6 |  | 
COc1cc2c(cc1C)c(=O)c(C(=O)c1ccc3ccccc3c1)cn2CC(=O)Nc1ccc(Cl)cc1 [Example 20, N-(4-Chlorophenyl)-2-[7-methoxy-6-methyl-3-(2-naphthoyl)-4-oxo-1-quinolinyl]acetamide] |  |  |  | 6.3
COc1cc(NC(=O)Cn2cc(C(=O)c3ccc(Cl)cc3)c(=O)c3cc4c(cc32)OCO4)cc(OC)c1 [Example 56, 2-[3-(4-Chlorobenzoyl)-6,7-methylenedioxy-4-oxo-1-quinolinyl]-N-(3,5-dimethoxyphenyl)acetamide] | 4.4 | 6.4 |  | 
Cc1ccc(C(=O)c2cn(CC(=O)Nc3ccc4c(c3)OCO4)c3cc4c(cc3c2=O)OCO4)cc1C [Example 76, 2-[3-(3,4-Dimethylbenzoyl)-6,7-methylenedioxy-4-oxo-1-quinolinyl]-N-(3,4-methylenedioxyphenyl)-acetamide] | 23.9 | 43.6 |  | 
CCCc1ccc(NC(=O)Cn2cc(C(=O)c3ccc4ccccc4c3)c(=O)c3cc4c(cc32)OCO4)cc1 [Example 9, 2-[6,7-Methylenedioxy-3-(2-naphthoyl)-4-oxo-1-quinolinyl]-N-(4-propylphenyl)acetamide] |  |  | 2 | 
COc1ccc(C(=O)c2cn(CC(=O)Nc3cccc(OC)c3)c3cc4c(cc3c2=O)OCO4)cc1 [Example 77] | 2.8 |  |  | 
CCOc1ccc(NC(=O)Cn2cc(C(=O)c3ccc(CC)cc3)c(=O)c3cc4c(cc32)OCO4)cc1 [Example 71, N-(4-Ethoxyphenyl)-2-[3-(4-ethylbenzoyl)-6,7-methylenedioxy-4-oxo-1-quinolinyl]acetamide] | 25.1 | 43.6 |  | 
COc1cccc(NC(=O)Cn2cc(C(=O)c3ccc(C)c(C)c3)c(=O)c3cc4c(cc32)OCO4)c1 [Example 75, N-m-Anisyl-2-[3-(3,4-dimethylbenzoyl)-6,7-methylenedioxy-4-oxo-1-quinolinyl]acetamide] | 5.3 | 7.7 |  | 
COc1ccc(NC(=O)Cn2cc(S(=O)(=O)c3ccccc3)c(=O)c3cc4c(cc32)OCO4)cc1 [Example 85, N-p-Anisyl-2-(3-benzenesulfonyl-6,7-methylenedioxy-4-oxo-1-quinolinyl)acetamide] | 12.2 |  |  | 
COc1ccc(NC(=O)Cn2cc(C(=O)c3ccc(Cl)cc3)c(=O)c3cc(OC)c(OC)cc32)cc1 [Example 104, N-p-Anisyl-2-[3-(4-chlorobenzoyl)-6,7-dimethoxy-4-oxo-1-quinolinyl]acetamide] |  |  |  | 1.4
